This is an account of results in patent US20100068147A1, “DENGUE DIAGNOSIS AND TREATMENT” (Agency for Science , Technology and Research, priority 2006, published 2010).

SMILES strings stand for the structures. Where a SMILES comes first, the peptide text is derived from it. [ ]: non-standard residue; d: D form. The star is where a group is joined. Nle = CCCC[C@H](N)C(=O)O; Nva = CCC[C@H](N)C(=O)O; Cbz = O=C(OCc1ccccc1)*

The target of experiment [1] is calpain I, calpain II, cathepsin B, and cathepsin L. The settings on record: one range for the four enzymes; cited from earlier work.
Another experiment deals with cathepsin L (Homo sapiens, UniProt P07711). The settings on record: cited from earlier work.
cathepsin L, sequence (P07711 114-333, species assumed): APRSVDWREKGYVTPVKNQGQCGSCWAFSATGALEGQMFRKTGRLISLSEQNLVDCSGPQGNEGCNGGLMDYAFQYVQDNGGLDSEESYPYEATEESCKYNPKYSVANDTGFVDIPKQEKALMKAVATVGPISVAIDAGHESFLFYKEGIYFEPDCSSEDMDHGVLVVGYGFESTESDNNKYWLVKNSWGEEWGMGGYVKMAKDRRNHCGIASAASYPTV
The target in the next experiment is T1, calpain I (Homo sapiens, UniProt P07384).
T1 sequence (P07384 1-714): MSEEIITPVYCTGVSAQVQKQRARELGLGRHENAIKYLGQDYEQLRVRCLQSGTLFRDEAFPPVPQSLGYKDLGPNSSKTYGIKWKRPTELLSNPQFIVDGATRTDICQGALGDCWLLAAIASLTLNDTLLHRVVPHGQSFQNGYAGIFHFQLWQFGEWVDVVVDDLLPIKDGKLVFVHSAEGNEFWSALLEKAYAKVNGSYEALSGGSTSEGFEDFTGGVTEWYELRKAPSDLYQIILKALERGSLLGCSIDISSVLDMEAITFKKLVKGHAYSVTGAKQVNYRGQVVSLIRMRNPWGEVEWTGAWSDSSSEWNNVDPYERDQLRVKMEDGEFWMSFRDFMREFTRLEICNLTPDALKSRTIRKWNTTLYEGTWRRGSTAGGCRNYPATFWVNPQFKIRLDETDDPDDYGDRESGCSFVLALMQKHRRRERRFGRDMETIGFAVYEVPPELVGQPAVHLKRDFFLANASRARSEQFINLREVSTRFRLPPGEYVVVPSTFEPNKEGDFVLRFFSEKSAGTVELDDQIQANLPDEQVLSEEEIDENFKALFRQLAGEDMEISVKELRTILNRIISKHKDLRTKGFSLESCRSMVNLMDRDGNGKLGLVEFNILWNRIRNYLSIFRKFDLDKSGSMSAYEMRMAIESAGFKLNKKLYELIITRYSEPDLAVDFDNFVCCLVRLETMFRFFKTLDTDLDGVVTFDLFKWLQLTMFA
T1 sequence (P04632 1-268 partner): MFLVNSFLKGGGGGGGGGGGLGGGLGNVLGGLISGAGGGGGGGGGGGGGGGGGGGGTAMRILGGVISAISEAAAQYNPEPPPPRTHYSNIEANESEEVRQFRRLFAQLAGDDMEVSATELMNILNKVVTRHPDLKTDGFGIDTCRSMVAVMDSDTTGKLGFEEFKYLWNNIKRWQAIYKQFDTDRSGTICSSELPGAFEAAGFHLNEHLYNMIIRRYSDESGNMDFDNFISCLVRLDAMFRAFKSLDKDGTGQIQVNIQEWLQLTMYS
The note with it: cited from earlier work.

The subject of the next experiment is dengue virus TSV01. Nature of the experiment: Plaque assay of supernatants of HepG2 cells infected with dengue virus TSV01 in the presence of ubiquitin-proteasome inhibitors. It counts as cell-based, dengue virus serotype 2. The note with it: for virus replication in the HepG2 cell line by plaque assay of the cell culture supernatants: FIG. 4A, two days after infection, MG-132 0.4 and 0.6 μM, ALLN 10 and 15 μM, MOI 10, vs DMSO alone; for virus replication in the HepG2 cell line by plaque assay of the cell culture supernatants / virus replication by plaque assay: 2 hrs prior to infection; for virus replication by plaque assay: FIG. 7G, HepG2, MG-132 0.04 and 0.4 μM, ALLN 1 and 10 μM, MOI 10, 48 hrs. The protocol: The HepG2 cell line is infected with TSV01, a serotype 2 dengue virus (Genbank AY037116; McBride and Vasudevan, 1995), and cells harvested over a succession of time points up to three days post-infection.
In a second experiment we applied specific compounds to our in vitro experiment (described above) that are known to alter the function of these (and other) genes in this pathway (Table E1 below).
HepG2 cells (ATCC) are treated with proteasome inhibitors prior to infection with dengue virus. […]
HepG2 cells are cultured ON in 24 well plates. […]
Cell culture supernatants are collected and assayed for dengue virus by plaque assay. Plaque forming units per ml are expressed as the mean percentage of the highest number of pfu/ml (DMSO alone)±SEM, (n=3). Cytotoxicity is measured using FDA and results are expressed as the mean percentage compared to DMSO alone±SEM, (n=3). “*” indicates p<0.05 and “**”indicates p<0.005 by students t-test comparing each treatment to DMSO alone.
The type 2 dengue virus strain TSV01 is obtained from an outbreak in Townsville, Australia (McBride and Vasudevan 1995) (GenBank, accession number AY037116). TSV01 is cultured in the C6/36 cell line (from the Aedes albopictus mosquito) with virus added to cells in a T175 flask (MOI 0.01) and incubated for 1 hr at 28° C. with brief mixing every 20 min. Media is removed and cells washed in fresh media then media with 5% FBS added and cells incubated for 5 days at 28° C. Cell culture supernatants are removed and centrifuged at 1000×g for 10 min at 4° C. then pooled and stored in aliquots at −80° C. Heat-inactivated virus is prepared by incubating virus samples at 55° C. for 1 hr, with heat-inactivation confirmed by plaque assay.
For plaque assay, BHK-21 cells are cultured ON in 24 well plates before media is removed and serial dilutions (10-fold) of cell culture supernatants added to individual wells. Plates are incubated for 1 hr before media is aspirated and replaced with 0.5 ml of 0.8% methyl-cellulose medium (with 2% FBS). Plates are then incubated for 5 days before the media is removed and cells fixed in 4% formaldehyde for 20 min then rinsed in water and stained with crystal violent for 20 min and rinsed again. Plaques are counted manually and concentrations of plaque forming units per ml (pfu/ml) of the sample cell culture supernatant calculated.

Another experiment addresses T2, calpain II (Homo sapiens, UniProt P17655).
T2 sequence (P17655 1-700): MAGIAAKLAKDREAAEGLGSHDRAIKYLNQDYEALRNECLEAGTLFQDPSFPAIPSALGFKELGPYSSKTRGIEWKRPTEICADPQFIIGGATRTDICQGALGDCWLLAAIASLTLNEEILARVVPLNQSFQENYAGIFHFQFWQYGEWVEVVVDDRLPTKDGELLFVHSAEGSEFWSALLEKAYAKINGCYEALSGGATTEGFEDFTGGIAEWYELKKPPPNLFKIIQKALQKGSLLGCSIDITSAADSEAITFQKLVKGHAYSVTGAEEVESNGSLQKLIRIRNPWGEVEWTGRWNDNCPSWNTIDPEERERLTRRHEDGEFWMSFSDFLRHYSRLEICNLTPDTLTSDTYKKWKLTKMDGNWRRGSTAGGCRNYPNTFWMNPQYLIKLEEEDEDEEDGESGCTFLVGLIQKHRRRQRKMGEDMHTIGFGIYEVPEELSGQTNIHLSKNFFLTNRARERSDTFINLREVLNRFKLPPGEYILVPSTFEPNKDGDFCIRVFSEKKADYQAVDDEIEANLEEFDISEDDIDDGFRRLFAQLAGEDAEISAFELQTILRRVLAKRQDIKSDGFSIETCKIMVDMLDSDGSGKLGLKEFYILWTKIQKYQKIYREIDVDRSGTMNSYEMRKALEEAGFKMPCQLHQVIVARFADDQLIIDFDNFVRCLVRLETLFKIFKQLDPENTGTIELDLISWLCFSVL
T2 sequence (P04632 1-268 partner): T1 sequence (P04632 1-268 partner)
The note with it: cited from earlier work.

The target of a further experiment is proteasome. The settings on record: cited from earlier work.
A further experiment deals with 26S proteasome. The note with it: cited from earlier work.
The target of a further experiment is 20S proteasome. The note with it: cited from earlier work.
Another experiment relates to NF-kB activation. The settings on record: cited from earlier work.
The next experiment concerns 26S complex. The note with it: cited from earlier work.
In experiment [2] the target is chymotrypsin-like activity (Homo sapiens, UniProt P28074). The settings on record: cited from earlier work.

Broadly, the Ki is a measure of affinity in units of concentration, obtained from inhibition or displacement. Take `CCCC[C@@H](C=O)NC(=O)[C@H](CC(C)C)NC(=O)[C@H](CC(C)C)NC(C)=O` [ALLN, N-Acetyl-Leu-Leu-Nle-CHO] (Ac-Leu-Leu-[Nle]-aldehyde): the Ki in experiment [1] is 150 to 500 nM; on cathepsin L, 0.5 nM; on calpain I, 190 nM; at calpain II, 220 nM; on proteasome, 6 µM. In the experiment on dengue virus TSV01, the “virus replication in the HepG2 cell line by plaque assay of the cell culture supernatants” value is “significantly reduced”. Also, the “virus replication by plaque assay” value in the experiment on dengue virus TSV01 is “significantly and consistently reduced”.
Take `CSCC[C@@H](C=O)NC(=O)[C@H](CC(C)C)NC(=O)[C@H](CC(C)C)NC(C)=O` [Calpain Inhibitor II, Ac-Leu-Leu-Methional] (Ac-Leu-Leu-Met-aldehyde): the Ki in [1] was 120 to 600 nM. For the same compound, in the experiment with proteasome, the “inhibition of proteasome activity” value is “does not”.
On to `C[C@@H]1C[C@H]2[C@@H]3CCC4=CC(=O)C=C[C@]4(C)[C@@]3(F)[C@@H](O)C[C@]2(C)[C@@]1(O)C(=O)CO` [Dexamethasone, dexamethasone], for which, in the experiment with dengue virus TSV01 (HepG2 infection model, data not shown), the “effect on viral replication” value is “no effect”.
On to `CCC[C@@H](C=O)NC(=O)[C@H](CC(C)C)NC(=O)[C@H](CC(C)C)NC(=O)OCc1ccccc1` [MG-115, Z-Leu-Leu-Norvalinal] (Cbz-Leu-Leu-[Nva]-aldehyde), for which the figures for the Ki on 26S proteasome and at 20S proteasome were 35 nM and 21 nM, respectively.
A word on the IC50: it is the concentration that gives 50% inhibition. Regarding `CC(C)C[C@@H](C=O)NC(=O)[C@H](CC(C)C)NC(=O)[C@H](CC(C)C)NC(=O)OCc1ccccc1` [MG-132, Carbobenzoxy-L-leucyl-L-leucyl-L-leucinal] (Cbz-Leu-Leu-Leu-aldehyde), the IC50 in the experiment on NF-kB activation was 3000 nM. Also, the “effective concentrations, reduction of degradation of ubiquitin-conjugated proteins” value in the experiment on 26S complex is “micromolar concentrations. Sequence: Z-Leu-”. Besides, in the experiment on dengue virus TSV01, the “virus replication in the HepG2 cell line by plaque assay of the cell culture supernatants” value is “significantly reduced”; the “virus replication by plaque assay” value is “significantly and consistently reduced”. Besides, on proteasome, the inhibitory constant (Ki) was 0.004 µM.
With `CC(C)C[C@H](NC(=O)OCc1ccccc1)C(=O)N[C@@H](CC(C)C)C(=O)N[C@H](C=O)Cc1ccccc1` [Proteasome Inhibitor II, Z-Leu-Leu-Phenylalaninal] (Cbz-Leu-Leu-Phe-aldehyde), the inhibition constant Ki in experiment [2] was 460 nM.
Consider `CC(C)[C@H](O)[C@@]12NC(=O)[C@H](C)[C@@H]1OC2=O` [clasto-Lactacystin β-Lactone], for which the “sensitivity relative to its precursor, lactacystin” value in the experiment with 20S proteasome (in vitro) is listed as ~10-fold more sensitive than its precursor,.
